Laboratory results from PubChem BioAssay AID330 (DTP/NCI, 2004).
Several values for one entry are separate records, joined by “and”; a condition that tells them apart may be missing. Equal values may be shown once. Toxic doses and inconclusive results are not listed.

Tested on: P388 leukemia ip, CD2F1 mice, survival T/C
Experiment: NCI In Vivo Anticancer Drug Screen. Data for tumor model P388 Leukemia (intraperitoneal) in CD2F1 (CDF1) mice
Conditions: endpoint: median survival time, higher = longer survival
Summary of the method: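 Mice carrying the transplanted tumor received test compound or vehicle. Survival was recorded in each group, and the value is the treated-group measurement divided by that of the vehicle-treated control group.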

[1] = dose: 0.78 mg/kg/injection, schedule: Q01DX009 (ip), vehicle: saline
[2] = dose: 12.5 mg/kg/injection, schedule: Q01DX009 (ip), vehicle: water
[3] = dose: 25.0 mg/kg/injection, schedule: Q01DX009 (ip), vehicle: water
[4] = dose: 50.0 mg/kg/injection, schedule: Q01DX009 (ip), vehicle: water
[5] = dose: 100.0 mg/kg/injection, schedule: Q01DX009 (ip), vehicle: water
[6] = dose: 50.0 mg/kg/injection, schedule: Q01DX005 (ip), vehicle: Klucel (hydroxypropylcellulose) (HPC)
[7] = dose: 100.0 mg/kg/injection, schedule: Q01DX005 (ip), vehicle: Klucel (hydroxypropylcellulose) (HPC)
[8] = dose: 200.0 mg/kg/injection, schedule: Q01DX005 (ip), vehicle: Klucel (hydroxypropylcellulose) (HPC)
[9] = dose: 100.0 mg/kg/injection, schedule: Q01DX009 (ip), vehicle: saline with Tween-80
[10] = dose: 200.0 mg/kg/injection, schedule: Q01DX009 (ip), vehicle: saline with Tween-80
[11] = dose: 400.0 mg/kg/injection, schedule: Q01DX009 (ip), vehicle: saline with Tween-80
[12] = dose: 60.0 mg/kg/injection, schedule: Q01DX005 (ip), vehicle: saline with Tween-80
[13] = dose: 120.0 mg/kg/injection, schedule: Q01DX005 (ip), vehicle: saline with Tween-80
[14] = dose: 50.0 mg/kg/injection, schedule: Q01DX005 (ip), vehicle: saline with Tween-80
[15] = dose: 100.0 mg/kg/injection, schedule: Q01DX005 (ip), vehicle: saline with Tween-80
[16] = dose: 50.0 mg/kg/injection, schedule: Q01DX005 (ip), vehicle: saline
[17] = dose: 200.0 mg/kg/injection, schedule: Q01DX005 (ip), vehicle: saline with Tween-80
[18] = dose: 50.0 mg/kg/injection, schedule: Q01DX009 (ip), vehicle: saline
[19] = dose: 100.0 mg/kg/injection, schedule: Q01DX009 (ip), vehicle: saline
[20] = dose: 200.0 mg/kg/injection, schedule: Q01DX009 (ip), vehicle: saline
[21] = dose: 50.0 mg/kg/injection, schedule: Q01DX009 (ip), vehicle: Klucel (hydroxypropylcellulose) (HPC)
[22] = dose: 100.0 mg/kg/injection, schedule: Q01DX009 (ip), vehicle: Klucel (hydroxypropylcellulose) (HPC)
[23] = dose: 200.0 mg/kg/injection, schedule: Q01DX009 (ip), vehicle: Klucel (hydroxypropylcellulose) (HPC)
[24] = dose: 50.0 mg/kg/injection, schedule: Q01DX009 (ip), vehicle: saline with Tween-80

`CCCCCC[N+]1(CC)CCCC1` was tested, and the T/C [1] was 97 % of control, the T/C (dose: 1.56 mg/kg/injection, schedule: Q01DX009 (ip), vehicle: saline) was 113 % of control and the T/C (dose: 3.12 mg/kg/injection, schedule: Q01DX009 (ip), vehicle: saline) was 98 % of control and 100 % of control.
In the case of `CN(C)CCO[Si](C)(C)[CH2][Sn]([CH3])([CH3])[CH3]`, the T/C (dose: 60.0 mg/kg/injection, schedule: Q01DX005 (ip), vehicle: saline) is reported as 108 % of control and the T/C (dose: 120.0 mg/kg/injection, schedule: Q01DX005 (ip), vehicle: saline) is reported as 105 % of control.
`CCCCCCCCCCCCCCCCCCOC(=O)Cc1ccc(N(CCCl)CCCl)cc1` was tested, and the T/C (dose: 45.0 mg/kg/injection, schedule: Q01DX009 (ip), vehicle: saline with Tween-80) was 168 % of control, the T/C (dose: 90.0 mg/kg/injection, schedule: Q01DX009 (ip), vehicle: saline with Tween-80) was 163 % of control and the T/C (dose: 180.0 mg/kg/injection, schedule: Q01DX009 (ip), vehicle: saline with Tween-80) was 150 % of control.
With `C=C1C(=O)O[C@@H]2CCC[C@H]12` the T/C [2] was 105 % of control, the T/C [3] was 112 % of control and the T/C [4] was 112 % of control. The T/C [5] was 108 % of control and the T/C (dose: 200.0 mg/kg/injection, schedule: Q01DX009 (ip), vehicle: water) was 112 % of control.
With `CC(=O)OCC1OC(n2cnc3c(Cl)nc(N)nc32)C(OC(C)=O)C1OC(C)=O` (stereo unspecified) the T/C (dose: 25.0 mg/kg/injection, schedule: Q01DX005 (ip), vehicle: Klucel (hydroxypropylcellulose) (HPC)) was 101 % of control, the T/C [6] was 101 % of control and the T/C [7] was 108 % of control. The T/C [8] was 105 % of control.
`CS(=O)(=O)C(=Cc1ccccc1Cl)S(C)(=O)=O` was tested, and the T/C (dose: 50.0 mg/kg/injection, schedule: Q04DX003 (ip), vehicle: Klucel (hydroxypropylcellulose) (HPC)) was 102 % of control, the T/C (dose: 100.0 mg/kg/injection, schedule: Q04DX003 (ip), vehicle: Klucel (hydroxypropylcellulose) (HPC)) was 107 % of control and the T/C (dose: 200.0 mg/kg/injection, schedule: Q04DX003 (ip), vehicle: Klucel (hydroxypropylcellulose) (HPC)) was 108 % of control.
With `COc1nc2ccccc2nc1OC` the T/C [9] was 97 % of control, the T/C [10] was 100 % of control and the T/C [11] was 97 % of control.
With `C/C=C/C(C#N)OC(C)=O` (stereo unspecified) the T/C (dose: 3.75 mg/kg/injection, schedule: Q01DX005 (ip), vehicle: saline) was 100 % of control and the T/C (dose: 7.5 mg/kg/injection, schedule: Q01DX005 (ip), vehicle: saline) was 100 % of control.
For `COC(=O)c1nc2nnc(N)n2c(-c2ccc(Cl)cc2)c1C`, the T/C [12] was 100 % of control, the T/C [13] was 101 % of control and the T/C (dose: 240.0 mg/kg/injection, schedule: Q01DX005 (ip), vehicle: saline with Tween-80) was 96 % of control.
For `COc1ccc(C2=NCCc3cc(OC)c(OC)cc32)cc1OC`, the T/C (dose: 6.25 mg/kg/injection, schedule: Q01DX009 (ip), vehicle: water) was 111 % of control, the T/C [2] was 108 % of control and the T/C [3] was 118 % of control. The T/C [4] was 105 % of control and the T/C [5] was 111 % of control.
`O=C1c2ccccc2C(=O)c2c(I)cccc21` was tested, and the T/C [14] was 97 % of control and the T/C [15] was 97 % of control.
In the case of `CC(C)CC(C)NC(C)CC(C)C` (stereo unspecified), the T/C (dose: 12.5 mg/kg/injection, schedule: Q01DX005 (ip), vehicle: saline) is reported as 90 % of control, the T/C (dose: 25.0 mg/kg/injection, schedule: Q01DX005 (ip), vehicle: saline) is reported as 97 % of control and the T/C [16] is reported as 102 % of control and 92 % of control.
`NN1C(=O)c2ccc3c4c(ccc(c24)C1=O)CC3` was tested, and the T/C (dose: 50.0 mg/kg/injection, schedule: Q01DX009 (ip), vehicle: suspension in saline) was 91 % of control, the T/C (dose: 100.0 mg/kg/injection, schedule: Q01DX009 (ip), vehicle: suspension in saline) was 102 % of control and the T/C (dose: 200.0 mg/kg/injection, schedule: Q01DX009 (ip), vehicle: suspension in saline) was 88 % of control. The T/C (dose: 400.0 mg/kg/injection, schedule: Q01DX009 (ip), vehicle: suspension in saline) was 99 % of control.
In the case of `CN(CC#CC#CCN(C)c1ccccc1)c1ccccc1`, the T/C [14] is reported as 102 % of control, the T/C [15] is reported as 102 % of control and the T/C [17] is reported as 102 % of control.
With `Nc1cc(=O)c2[nH]cnc2[nH]1` the T/C (dose: 12.5 mg/kg/injection, schedule: Q01DX009 (ip), vehicle: saline) was 103 % of control, the T/C (dose: 25.0 mg/kg/injection, schedule: Q01DX009 (ip), vehicle: saline) was 90 % of control and the T/C [14] was 101 % of control. The T/C [18] was 98 % of control and 101 % of control, the T/C [15] was 106 % of control and the T/C [19] was 103 % of control. For the same molecule, the T/C [17] was 107 % of control and the T/C [20] was 88 % of control.
In the case of `C/C(CC/C(C)=N/N=C(\N)c1ccccn1)=N\N=C(/N)c1ccccn1`, the T/C [21] is reported as 99 % of control, the T/C [22] is reported as 98 % of control and the T/C [23] is reported as 99 % of control.
For `CCOc1ccc2[nH]c(=S)sc2c1`, the T/C [21] was 100 % of control, the T/C [22] was 100 % of control and the T/C [23] was 101 % of control.
With `CCOC(=O)c1c(C)c(C(=O)OCC)n(CC)c1C=O` the T/C [24] was 96 % of control, the T/C [9] was 98 % of control and the T/C [10] was 98 % of control.
`C=CCSc1nc2ccc(N3C(=O)C4C5C=CC(C5)C4C3=O)cc2s1` (stereo unspecified) was tested, and the T/C [21] was 87 % of control, the T/C [22] was 92 % of control and the T/C [23] was 93 % of control.
`O=C1C(=O)N(c2ccccc2)[C@]2(c3ccccc3)C1=C(c1ccccc1)N(c1ccccc1)C(=O)N2c1ccccc1` was tested, and the T/C [14] was 97 % of control, the T/C [15] was 88 % of control and the T/C [17] was 88 % of control.
`c1ccc(C2SCC3(CCCCC3)CS2)cc1` was tested, and the T/C (dose: 25.0 mg/kg/injection, schedule: Q01DX005 (ip), vehicle: saline with Tween-80) was 98 % of control, the T/C (dose: 50.0 mg/kg/injection, schedule: Q01DX001 (ip), vehicle: saline with Tween-80) was 101 % of control and the T/C [14] was 100 % of control. For the same molecule, the T/C (dose: 100.0 mg/kg/injection, schedule: Q01DX001 (ip), vehicle: saline with Tween-80) was 101 % of control, the T/C [15] was 100 % of control and the T/C (dose: 200.0 mg/kg/injection, schedule: Q01DX001 (ip), vehicle: saline with Tween-80) was 94 % of control. The T/C [17] was 98 % of control and the T/C (dose: 400.0 mg/kg/injection, schedule: Q01DX001 (ip), vehicle: saline with Tween-80) was 88 % of control.
`CC(Cl)CN(CC(C)Cl)C(=O)Oc1ccc(CC(N)C(=O)O)cc1` (stereo unspecified) was tested, and the T/C [21] was 91 % of control, the T/C [22] was 89 % of control and the T/C [23] was 97 % of control.
`Cc1ccc([Se](=C(C(=O)c2ccccc2)C(=O)c2ccccc2)c2ccc(C)cc2)cc1` was tested, and the T/C [18] was 104 % of control, the T/C [19] was 100 % of control and the T/C [20] was 104 % of control.
For `Nc1cccnc1C1OCCO1`, the T/C (dose: 50.0 mg/kg/injection, schedule: Q01DX009 (ip), vehicle: other) was 100 % of control and the T/C (dose: 100.0 mg/kg/injection, schedule: Q01DX009 (ip), vehicle: other) was 103 % of control.
With `Cc1cc2nc3ccc(N=Nc4ccc(N(C)C)cc4)cc3n(-c3ccccc3)c-2cc1=N` the T/C (dose: 0.39 mg/kg/injection, schedule: Q01DX009 (ip), vehicle: saline) was 113 % of control and 118 % of control and the T/C [1] was 119 % of control.
With `CCC(CC)(COS(C)(=O)=O)COS(C)(=O)=O` the T/C [24] was 104 % of control, the T/C [9] was 101 % of control and the T/C [10] was 90 % of control. The T/C [11] was 89 % of control.
`CC(=O)N1C=CN(C(C)=O)C1c1c[nH]c2ccccc12` was tested, and the T/C [6] was 98 % of control, the T/C [7] was 104 % of control and the T/C [8] was 99 % of control.
In the case of `CCOC(=O)c1ccnc2ccc(OCCN(CC)CC)cc12`, the T/C [16] is reported as 96 % of control, the T/C (dose: 100.0 mg/kg/injection, schedule: Q01DX005 (ip), vehicle: saline) is reported as 100 % of control and the T/C (dose: 200.0 mg/kg/injection, schedule: Q01DX005 (ip), vehicle: saline) is reported as 101 % of control.
With `CCOC(=O)/N=C(/NC(=O)OCC)N1CCN(c2ccnc3cc(Cl)ccc23)CC1` the T/C [14] was 98 % of control, the T/C [15] was 97 % of control and the T/C [17] was 91 % of control.
For `O=C1c2ccccc2C(=O)C1(c1ccccn1)[N+](=O)[O-]`, the T/C [12] was 110 % of control and the T/C [13] was 113 % of control.
